{"source": "patent US20060216330A1", "about": "“Peptides having an ace inhibiting effect” (priority 2003, published 2006)", "key": {"[1]": {"system": "spontaneously hypertensive rats", "settings": "Abubakar et al., 1998; cited from earlier work"}, "ACE": {"molecular_target": "ACE (Homo sapiens, UniProt P12821)", "sequence (P12821 30-1306, species assumed)": "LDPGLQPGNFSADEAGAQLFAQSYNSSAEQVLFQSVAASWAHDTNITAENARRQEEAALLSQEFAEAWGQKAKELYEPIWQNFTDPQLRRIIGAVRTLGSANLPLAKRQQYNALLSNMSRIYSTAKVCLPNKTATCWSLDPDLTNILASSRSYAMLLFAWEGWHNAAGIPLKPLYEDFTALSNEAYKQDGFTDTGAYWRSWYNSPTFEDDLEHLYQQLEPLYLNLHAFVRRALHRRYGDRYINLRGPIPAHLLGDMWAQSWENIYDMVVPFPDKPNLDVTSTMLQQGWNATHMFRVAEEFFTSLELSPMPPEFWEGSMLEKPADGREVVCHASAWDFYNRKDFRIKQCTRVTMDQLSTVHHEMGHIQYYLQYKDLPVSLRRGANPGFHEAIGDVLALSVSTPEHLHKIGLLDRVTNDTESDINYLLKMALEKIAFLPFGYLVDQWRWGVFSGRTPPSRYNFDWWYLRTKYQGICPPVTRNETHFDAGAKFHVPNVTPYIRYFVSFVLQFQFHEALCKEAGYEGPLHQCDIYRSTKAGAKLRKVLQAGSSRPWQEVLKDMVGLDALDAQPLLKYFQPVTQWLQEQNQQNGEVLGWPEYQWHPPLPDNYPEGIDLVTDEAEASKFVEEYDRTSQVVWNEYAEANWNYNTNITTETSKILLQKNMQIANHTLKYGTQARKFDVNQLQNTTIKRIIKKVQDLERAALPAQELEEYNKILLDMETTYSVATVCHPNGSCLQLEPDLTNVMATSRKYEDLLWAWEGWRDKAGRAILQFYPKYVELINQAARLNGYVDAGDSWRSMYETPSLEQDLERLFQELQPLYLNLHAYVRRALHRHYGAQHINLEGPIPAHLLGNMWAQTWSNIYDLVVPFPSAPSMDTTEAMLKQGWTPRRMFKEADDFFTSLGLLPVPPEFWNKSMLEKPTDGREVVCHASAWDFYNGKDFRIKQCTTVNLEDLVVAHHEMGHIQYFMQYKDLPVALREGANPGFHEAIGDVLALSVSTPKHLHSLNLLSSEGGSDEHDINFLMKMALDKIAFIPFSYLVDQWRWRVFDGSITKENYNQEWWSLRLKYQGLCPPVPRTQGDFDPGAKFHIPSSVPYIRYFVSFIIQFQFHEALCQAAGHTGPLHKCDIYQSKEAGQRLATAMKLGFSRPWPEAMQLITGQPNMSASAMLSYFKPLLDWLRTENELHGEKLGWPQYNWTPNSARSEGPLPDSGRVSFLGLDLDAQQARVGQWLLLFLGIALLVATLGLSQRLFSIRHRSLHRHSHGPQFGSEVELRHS", "assay": "ACE activity measurement with fluorogenic substrate Abz-FRK(Dnp)P-OH", "experimental": "ACE activity with the fluorogenic substrate Abz-FRK(Dnp)P—OH was monitored in 0.1 M Tris buffer pH 7.0, containing 100 mM NaCl. […] The ACE activity was continuously followed in a Fluostar (BMG) fluorometer with 2 dispensers by measuring the fluorescence at λex: 320 nm and λem: 420 nm."}, "[2]": {"assay": "In vitro gastro-intestinal digestion of Biozate (artificial human gastro intestinal tract)", "experimental": "The stability of peptides in the human gastro-intestinal tract was studied by subjecting Biozate™ to typical conditions in the stomach and small intestine. Gastric conditions were mimicked by dissolving 5.0 g Biozate™, 2.1 g NaCl, 0.1 g NaH2PO4, 0.45 g lipase and 2.9 g pepsin in 900 mL of Millipore Q water. The fluid was adjusted to pH 3.5 with HCl, stirred with a peddle (50 rpm) and kept at 37° C. for 60 min. Subsequently, intestinal conditions were mimicked by adding 9.0 g pancreatin to the simulated gastric fluid and adjusting the pH to 6.8 with NaHCO3. The simulated intestinal fluid was incubated at 37° C. and continuous stirring (50 rpm) for 120 min. Samples were collected at different time points during the in vitro gastro-intestinal digestion. After collection, samples were directly heated at 95° C. for 30 min and subsequently stored at −20° C.\nAt certain times samples were taken from the GIT model system."}}, "note": "Read-outs that look alike come from different tables or passages of the source. Ends that are not written are not given here. Peptide text beside a SMILES is read from it.", "data": [{"compound": "CC[C@H](C)[C@H](N)C(=O)N1CCC[C@H]1C(=O)N[C@@H](C)C(=O)O", "note": "[IPA] (H-Ile-Pro-Ala-OH; N-terminus and C-terminus assumed)", "values": [{"measurement": "antihypertensive activity", "setting": "[1]", "result": "has antihypertensive activity"}, {"measurement": "IC50", "setting": "ACE", "result": 50, "unit": "µM"}, {"measurement": "Concentration, Original solution", "setting": "[2]; Biozate original solution before digestion", "result": 0, "unit": "ng/mL"}, {"measurement": "Concentration, t = 0 min", "setting": "[2]; t = 0 min, simulated gastric fluid pH 3.5, 37° C.", "result": 0, "unit": "ng/mL"}, {"measurement": "Concentration, t = 60 min", "setting": "[2]; t = 60 min, end of gastric phase", "result": 0, "unit": "ng/mL"}, {"measurement": "Concentration, t = 65 min", "setting": "[2]; t = 65 min, simulated intestinal fluid (pancreatin, pH 6.8)", "result": 9000, "unit": "ng/mL"}, {"measurement": "Concentration, t = 75 min", "setting": "[2]; t = 75 min, simulated intestinal fluid", "result": 9000, "unit": "ng/mL"}, {"measurement": "Concentration, t = 90 min", "setting": "[2]; t = 90 min, simulated intestinal fluid", "result": 9000, "unit": "ng/mL"}, {"measurement": "Concentration, t = 120 min", "setting": "[2]; t = 120 min, simulated intestinal fluid", "result": 9000, "unit": "ng/mL"}, {"measurement": "Concentration, t = 150 min", "setting": "[2]; t = 150 min, simulated intestinal fluid", "result": 14000, "unit": "ng/mL"}, {"measurement": "Concentration, t = 180 min", "setting": "[2]; t = 180 min, simulated intestinal fluid", "result": 17000, "unit": "ng/mL"}]}, {"compound": "IPAVFK [IPAVFK]", "values": [{"measurement": "Concentration, t = 0 min", "setting": "pH 3.5", "result": 26000, "unit": "ng/mL"}, {"measurement": "Concentration, t = 65 min", "setting": "pH 6.8", "result": 3000, "unit": "ng/mL"}, {"measurement": "IC50", "setting": "ACE", "result": 120, "unit": "µM"}]}]}
